Assay results as given in patent US6747039B2, “Aza-benzothiopyranoindazoles with antitumor activity” (Albany Molecular Research, Inc., priority 2002, dated 2004).

The compounds below were run on HeLa S-3 cells (assay: Inhibition of cell growth (sulforhodamine B) to determine GI50). Details: Homo sapiens, HeLa S3; HeLa cells; Table 5, aza-analogs; read-out: IC50 (aza-analogs).
Type: cell-based
Procedure: Growth inhibition (GI50) values were measured with HeLa S-3 cells selected for growth on plastic. The procedure was based on the protocol of Skehan et al. (Skehan, P., et al., J. Natl. Cancer Inst., 82:1107-1112 (1990), which is hereby incorporated by reference). HeLa cells were plated at 2×10^4 cells/well in 96 well plates. One day later, a control plate was fixed by addition of TCA to 5%. After five rinses with tap water, the plate was air dried and stored at 4° C. Test compounds were added to the remaining plates at 10-fold dilutions between 0.01 and 100 μM. Two days later, all plates were fixed as described above. Cells were then stained by the addition of 100 μl per well of 0.4% sulforhodamine B (SRB) in 1% acetic acid for 30 min at 4° C. Wells were then quickly rinsed 5× with acetic acid (1%) and allowed to air dry. The SRB was then solubilized by the addition of 100 μl per well of unbuffered 10 mM Tris base. Dye was quantified by measuring absorbance at 490 nm on a Molecular Devices kinetic microplate reader. Growth at each inhibitor concentration relative to the untreated control was calculated according to the following equation: percent growth=100×(T−To)/(C−To), where T was the average optical density (OD) of the test wells after 2 days of treatment, To was the average OD of the wells in the control plate on day 0 and C was the average OD of untreated wells. Plots of percent growth versus inhibitor concentration were used to determine the GI50.
The data below shown in Table 4 summarizes the in vitro cyclin/cdk inhibition constants (IC50) of HeLa Cells for the compounds of the current invention.

| IC50 [µM] | Compound |
| --- | --- |
| 0.2 | CCN(CC)CCn1nc2c3c(c(CN)ccc31)Sc1ncccc1-2 [drawing 124] |
| 3 | CCN(CC)CCNc1cccc2sc3ccncc3c(=O)c12 |
| 0.3 | CCN(CC)CCNc1ccc(CNC(=O)OC)c2sc3ccncc3c(=O)c12 |
| 0.5 | CCN(CC)CCn1nc2c3c(c(CNC=O)ccc31)Sc1ncccc1-2 [drawing 126] |
| 0.3 | CCN(CC)CCn1nc2c3c(c(CNS(C)(=O)=O)ccc31)Sc1ccncc1-2 [drawing 118] |
| 1 | CCN(CC)CCn1nc2c3c(cccc31)Sc1ccncc1-2 |
| 0.1 | CCN(CC)CCn1nc2c3c(c(CNC(=O)OC)ccc31)Sc1ccncc1-2 [drawing 116] |
| 0.2 | CCN(CC)CCn1nc2c3c(c(CNC=O)ccc31)Sc1ccncc1-2 [drawing 114] |
| 0.3 | CCN(CC)CCn1nc2c3c(c(CNS(C)(=O)=O)ccc31)Sc1ncccc1-2 [drawing 122] |
| 1 | CCN(CC)CCNc1ccc(CNC=O)c2sc3ccncc3c(=O)c12 |
| 0.4 | CCN(CC)CCNc1ccc(CNS(C)(=O)=O)c2sc3ccncc3c(=O)c12 |
| 0.2 | CCN(CC)CCn1nc2c3c(c(CN)ccc31)Sc1ccncc1-2 [drawing 112] |
| 0.7 | CCN(CC)CCNc1ccc(CN)c2sc3ccncc3c(=O)c12 |
| 0.5 | CCN(CC)CCn1nc2c3c(c(CNC(=O)OC)ccc31)Sc1ncccc1-2 [drawing 120] |

Same assay, conditions: Homo sapiens, HeLa S3; HeLa cells; Table 5, carbocyclic congeners; read-out: IC50 (carbocyclic congeners)

| IC50 [µM] | Compound |
| --- | --- |
| 3 | CCN(CC)CCNc1ccc(CNC=O)c2sc3ccccc3c(=O)c12 [reference compound] |
| 1 | CCN(CC)CCn1nc2c3c(c(CN)ccc31)Sc1ccccc1-2 [reference compound] |
| > 10 | CCN(CC)CCNc1cccc2sc3ccccc3c(=O)c12 [reference compound] |
| 1 | CCN(CC)CCn1nc2c3c(c(CNC=O)ccc31)Sc1ccccc1-2 [reference compound] |
| 3 | CCN(CC)CCn1nc2c3c(c(CNC(=O)OC)ccc31)Sc1ccccc1-2 [reference compound] |
| 9 | CCN(CC)CCn1nc2c3c(cccc31)Sc1ccccc1-2 [reference compound] |
| 0.6 | CCN(CC)CCNc1ccc(CN)c2sc3ccccc3c(=O)c12 [reference compound] |
| 0.9 | CCN(CC)CCn1nc2c3c(c(CNS(C)(=O)=O)ccc31)Sc1ccccc1-2 [reference compound] |

Same assay, conditions: Homo sapiens, HeLa S3; Table 6, comparison of nitrogen position, first compound of pair

| GI50 [µM] | Compound |
| --- | --- |
| 0.1 | CCN(CC)CCn1nc2c3c(c(CNC(=O)OC)ccc31)Sc1ccncc1-2 [drawing 131] |
| 0.2 | CCN(CC)CCn1nc2c3c(c(CN)ccc31)Sc1ccncc1-2 [drawing 127] |
| 0.4 | CCN(CC)CCNc1ccc(C)c2sc3ccncc3c(=O)c12 |
| 0.2 | CCN(CC)CCn1nc2c3c(c(CNS(C)(=O)=O)ccc31)Sc1ccncc1-2 [drawing 133] |
| 0.05 | CCN(CC)CCn1nc2c3c(c(CNC=O)ccc31)Sc1ccncc1-2 [drawing 129] |
| 0.1 | CCN(CC)CCn1nc2c3c(c(C)ccc31)Sc1ccncc1-2 |

Same assay, conditions: Homo sapiens, HeLa S3; Table 6, comparison of nitrogen position, second compound of pair

| GI50 [µM] | Compound |
| --- | --- |
| 3 | CCN(CC)CCNc1ccc(C)c2sc3ncccc3c(=O)c12 |
| 0.6 | CCN(CC)CCn1nc2c3c(c(C)ccc31)Sc1ncccc1-2 |
| 0.5 | CCN(CC)CCn1nc2c3c(c(CNC(=O)OC)ccc31)Sc1ncccc1-2 [drawing 132] |
| 0.2 | CCN(CC)CCn1nc2c3c(c(CN)ccc31)Sc1ncccc1-2 [drawing 128] |
| 0.5 | CCN(CC)CCn1nc2c3c(c(CNC=O)ccc31)Sc1ncccc1-2 [drawing 130] |
| 0.3 | CCN(CC)CCn1nc2c3c(c(CNS(C)(=O)=O)ccc31)Sc1ncccc1-2 [drawing 134] |
